From EP4796538A1, “NOVEL QUINOXALINE COMPOUNDS, MANUFACTURING METHOD THEREOF, AND USES THEREOF” (Gachon University of Industry-Academic Cooperation …, priority 2023, dated 2025)
Like-named read-outs stand apart in the source and are kept apart here.

Assays:
[1] = tested on: BaF3-RET(V804M); assay: Cell proliferation inhibition (GI50), Cell Counting Kit-8, Ba/F3 cell line; type: cell-based, rodent; conditions: Mus musculus, read-out: GI50 of BaF3-RET(V804M)
Procedure: To evaluate the inhibitory activity of the compounds represented by Formula I or Formula IV according to the present invention against RET mutation-driven cell growth in the Ba/F3 cell line and against cell growth in the non-small cell lung cancer cell line A-549, the following experiment was performed.
Each cell line was seeded in a 96-well plate at 1×10^4 cells/90 µL/well, and 10 µL/well of culture medium containing each example and intermediate compound or DMSO control at 9 concentrations (1 nM to 100 µM) prepared by 3-fold serial dilutions was added to achieve a final concentration of 0 to 100 µM, followed by incubation for 72 hours in a 37°C, 5% CO2 incubator. After 72 hours of incubation, the compound-treated plates were removed, and Cell Counting Kit-8 solution was added at 10 µL/well and mixed well. The plates were then incubated for 2 hours in a CO2 incubator at 37°C, and the absorbance was measured at 450 nm using a microplate reader.
In addition, the data were expressed as a percentage relative to vehicle-treated cells, and GI50 values were calculated using GraphPad Prism 8.0 (GraphPad Software Inc., San Diego), and the results are shown in Table 8 below. As a control compound, ponatinib, a known RET inhibitor, was treated to calculate the GI50 values.

[2] = tested on: A-549; assay: Cell proliferation inhibition, Cell Counting Kit-8, non-small cell lung cancer cell line; type: cell-based; conditions: A-549 cell line; 72 hours incubation; test concentration not given
[3] = target: T1, RET (G810S/M918T) (Homo sapiens, UniProt P07949, G810S/M918T); assay: Kinase panel inhibition, radiolabeled [γ-33P] ATP (Reaction Biology Corp); type: biochemical; conditions: compound at 10 uM, ATP 1 µM
T1 construct: purchased Reaction Biology Corp

[4] = target: T2, RET(V804M) (Homo sapiens, UniProt P07949, V804M); assay: as above; type: biochemical; conditions: for remaining activity at 0.1 µM: compound at 0.1 uM, ATP 10 µM, read-out: % Enzyme Activity (relative to DMSO controls) V804M
T2 construct: purchased Reaction Biology Corp

[5] = target: T3, RET(V804M)-KIF5B (Homo sapiens, UniProt P07949, V804M); assay: as above; type: biochemical; conditions: for remaining activity at 0.1 µM: compound at 0.1 uM, ATP 10 µM, read-out: % Enzyme Activity (relative to DMSO controls) RET (V804M )-KIF5B
T3 sequence (P07949 713-1114 V804M): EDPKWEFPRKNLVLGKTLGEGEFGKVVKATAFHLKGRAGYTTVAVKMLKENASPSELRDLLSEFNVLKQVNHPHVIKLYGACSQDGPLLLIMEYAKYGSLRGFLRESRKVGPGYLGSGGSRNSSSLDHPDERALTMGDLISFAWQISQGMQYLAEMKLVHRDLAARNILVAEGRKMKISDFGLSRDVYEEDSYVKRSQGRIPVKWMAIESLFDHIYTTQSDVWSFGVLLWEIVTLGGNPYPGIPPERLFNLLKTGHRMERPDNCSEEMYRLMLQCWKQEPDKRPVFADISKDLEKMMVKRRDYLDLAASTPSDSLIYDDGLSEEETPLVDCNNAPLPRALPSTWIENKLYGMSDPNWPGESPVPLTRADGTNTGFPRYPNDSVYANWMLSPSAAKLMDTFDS
T3 sequence (P33176 2-575 partner): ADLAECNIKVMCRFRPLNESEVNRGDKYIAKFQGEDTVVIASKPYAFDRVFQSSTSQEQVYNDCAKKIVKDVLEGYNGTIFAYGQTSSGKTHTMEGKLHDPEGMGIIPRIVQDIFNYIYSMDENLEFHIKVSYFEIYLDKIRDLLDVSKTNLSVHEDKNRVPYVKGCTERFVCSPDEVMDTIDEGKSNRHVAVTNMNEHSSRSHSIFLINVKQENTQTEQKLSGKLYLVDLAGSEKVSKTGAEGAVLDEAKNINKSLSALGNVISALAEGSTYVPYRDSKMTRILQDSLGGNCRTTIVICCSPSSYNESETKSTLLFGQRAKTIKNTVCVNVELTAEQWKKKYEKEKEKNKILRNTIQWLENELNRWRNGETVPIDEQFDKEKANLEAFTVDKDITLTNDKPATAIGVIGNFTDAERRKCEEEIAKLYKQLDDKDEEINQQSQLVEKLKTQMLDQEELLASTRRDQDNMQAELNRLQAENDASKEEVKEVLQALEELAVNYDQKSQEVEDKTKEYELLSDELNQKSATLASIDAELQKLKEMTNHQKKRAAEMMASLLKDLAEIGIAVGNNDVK

[6] = target: T4, RET-CCDC6 (PTC1) (Homo sapiens, UniProt P07949); assay: as above; type: biochemical; conditions: compound at 10 uM, ATP 1 µM
T4 construct: purchased Reaction Biology Corp

[7] = target: T5, RET(G810R) (Homo sapiens, UniProt P07949, G810R); assay: as above; type: biochemical; conditions: for remaining activity at 0.1 µM: compound at 0.1 uM, ATP 10 µM, read-out: % Enzyme Activity (relative to DMSO controls) G810R
T5 construct: purchased Reaction Biology Corp

[8] = Data 1, read-out: % Enzyme Activity (relative to DMSO controls) RET (G810S/M918T) Data 1
[9] = Data 2, read-out: % Enzyme Activity (relative to DMSO controls) RET (G810S/M918T) Data 2
[10] = Data 1, read-out: % Enzyme Activity (relative to DMSO controls) RET-CCDC6 (PTC1) Data 1
[11] = Data 2, read-out: % Enzyme Activity (relative to DMSO controls) RET-CCDC6 (PTC1) Data 2
[12] = BaF3, 72 hours incubation, Cell Counting Kit-8

T5 sequence (P07949 29-1114 G810R): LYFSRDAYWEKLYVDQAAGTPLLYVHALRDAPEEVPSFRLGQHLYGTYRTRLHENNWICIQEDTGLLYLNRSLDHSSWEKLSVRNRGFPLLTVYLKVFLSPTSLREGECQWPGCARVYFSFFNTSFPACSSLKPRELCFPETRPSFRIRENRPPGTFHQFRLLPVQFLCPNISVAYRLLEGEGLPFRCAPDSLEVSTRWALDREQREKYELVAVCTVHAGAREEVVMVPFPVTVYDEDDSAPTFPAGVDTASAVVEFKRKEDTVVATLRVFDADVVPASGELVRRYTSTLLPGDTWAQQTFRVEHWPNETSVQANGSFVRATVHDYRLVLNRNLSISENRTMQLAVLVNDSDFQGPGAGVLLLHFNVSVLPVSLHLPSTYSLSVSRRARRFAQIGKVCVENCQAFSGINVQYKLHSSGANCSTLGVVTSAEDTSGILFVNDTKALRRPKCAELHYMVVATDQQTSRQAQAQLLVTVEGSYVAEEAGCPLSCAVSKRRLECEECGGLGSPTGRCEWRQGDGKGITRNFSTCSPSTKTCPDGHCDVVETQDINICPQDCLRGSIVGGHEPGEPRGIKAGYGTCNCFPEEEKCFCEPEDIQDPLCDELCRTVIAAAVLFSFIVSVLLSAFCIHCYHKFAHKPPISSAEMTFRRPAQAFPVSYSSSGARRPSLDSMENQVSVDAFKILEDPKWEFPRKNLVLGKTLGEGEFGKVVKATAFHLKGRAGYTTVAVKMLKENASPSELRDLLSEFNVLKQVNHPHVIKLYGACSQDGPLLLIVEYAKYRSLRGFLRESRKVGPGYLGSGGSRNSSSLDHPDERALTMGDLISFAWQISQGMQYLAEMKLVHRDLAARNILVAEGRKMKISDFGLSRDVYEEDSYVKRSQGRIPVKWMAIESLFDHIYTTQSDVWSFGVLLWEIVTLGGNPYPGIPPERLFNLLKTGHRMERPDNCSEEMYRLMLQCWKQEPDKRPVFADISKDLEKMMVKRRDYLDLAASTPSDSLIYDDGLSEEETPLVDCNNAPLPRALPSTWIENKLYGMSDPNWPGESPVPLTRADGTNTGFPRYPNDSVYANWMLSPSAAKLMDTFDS
T4 sequence (P07949 whole entry, looked up): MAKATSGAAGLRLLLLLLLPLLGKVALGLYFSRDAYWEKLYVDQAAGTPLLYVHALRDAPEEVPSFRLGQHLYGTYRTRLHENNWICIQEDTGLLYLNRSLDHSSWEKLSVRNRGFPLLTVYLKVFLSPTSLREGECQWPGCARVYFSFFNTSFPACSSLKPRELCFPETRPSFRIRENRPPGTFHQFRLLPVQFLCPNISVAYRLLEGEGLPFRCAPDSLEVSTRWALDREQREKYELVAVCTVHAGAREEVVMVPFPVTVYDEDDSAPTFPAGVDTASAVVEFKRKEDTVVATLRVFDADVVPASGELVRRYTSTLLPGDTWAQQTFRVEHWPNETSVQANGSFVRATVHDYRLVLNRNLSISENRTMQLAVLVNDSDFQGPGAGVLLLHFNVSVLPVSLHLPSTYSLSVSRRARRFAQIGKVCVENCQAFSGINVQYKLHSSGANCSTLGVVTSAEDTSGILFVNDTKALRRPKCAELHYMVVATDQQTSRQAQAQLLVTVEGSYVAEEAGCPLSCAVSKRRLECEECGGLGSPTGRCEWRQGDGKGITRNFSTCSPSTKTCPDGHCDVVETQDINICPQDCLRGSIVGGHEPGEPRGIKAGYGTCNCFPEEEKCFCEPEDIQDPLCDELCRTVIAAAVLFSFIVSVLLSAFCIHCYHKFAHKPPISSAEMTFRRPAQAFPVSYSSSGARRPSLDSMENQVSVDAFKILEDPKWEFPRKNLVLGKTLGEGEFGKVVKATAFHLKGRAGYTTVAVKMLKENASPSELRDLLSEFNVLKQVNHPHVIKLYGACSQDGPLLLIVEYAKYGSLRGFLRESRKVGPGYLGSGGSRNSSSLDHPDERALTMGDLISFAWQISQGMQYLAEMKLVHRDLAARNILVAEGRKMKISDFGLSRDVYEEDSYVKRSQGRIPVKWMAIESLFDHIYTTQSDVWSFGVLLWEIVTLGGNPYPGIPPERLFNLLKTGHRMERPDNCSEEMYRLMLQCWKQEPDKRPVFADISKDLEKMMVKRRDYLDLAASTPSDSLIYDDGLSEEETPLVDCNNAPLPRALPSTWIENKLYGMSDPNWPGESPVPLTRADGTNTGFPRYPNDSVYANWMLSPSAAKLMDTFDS
T1 sequence (P07949 29-1114 G810S/M918T): as the sequence (P07949 29-1114 G810R) above, with R782S, M890T counted along it
T2 sequence (P07949 29-1114 V804M): as the sequence (P07949 29-1114 G810R) above, with V776M, R782G counted along it

SMILES | remaining activity at 10 µM [3, 8] [%] | remaining activity at 10 µM [3, 9] [%] | remaining activity at 0.1 µM [4] [%] | remaining activity at 0.1 µM [5] [%] | remaining activity at 10 µM [6, 10] [%] | remaining activity at 10 µM [6, 11] [%] | remaining activity at 0.1 µM [7] [%] | GI50 [1, 12] [nM] | GI50 ([1]; BaF3, 72 h) [nM] | Cell Proliferation (% of control) [2] [%] | IC50 ([4]; read-out: Enzymatic inhibitory activity (IC50) nM V804M) [nM] | IC50 [5] [nM] | IC50 ([7]; read-out: Enzymatic inhibitory activity (IC50) nM G810R) [nM]
Cc1ccc(C(=O)Nc2ccc(CN3CCN(C)CC3)c(C(F)(F)F)c2)cc1C#Cc1cnc2cccnn12 [Ponatinib, ponatinib, reference compound] |  |  |  |  |  |  |  |  | 115 | -1.99 |  |  | 
CNc1cc(-c2ccc(N3CC(Oc4cccc(F)c4)C3)nc2)c2nccnc2c1 [Example 2, 8-(6-(3-(3-fluorophenoxy)azetidin-1-yl)pyridin-3-yl)-N-methylquinoxalin-6-amine] | 0.05 | -0.43 |  |  | 1.38 | 0.23 | 77.3 | 943 |  | 18.59 |  |  | 
CNc1cc(-c2ccc(N3CC[C@H](NC(=O)c4ccccc4F)C3)nc2)c2nccnc2c1 [Example 11, (S)-2-fluoro-N-(1-(5-(7-(methylamino)quinoxalin-5-yl)pyridin-2-yl)pyrrolidin-3-yl)benzamide] | -0.84 | -0.85 |  |  | 1.36 | 1.07 | 56 | 2120 |  | 20.80 |  |  | 
O=C(Nc1cc(-c2ccc(N3CC(Oc4cccc(F)c4)C3)nc2)c2nccnc2c1)c1ccco1 [Example 8, N-(8-(6-(3-(3-fluorophenoxy)azetidin-1-yl)pyridin-3-yl)quinoxalin-6-yl)furan-2-carboxamide] | 13.6 | 12.9 | 46 | 65.1 | 2.53 | 1.8 | 96.7 |  |  | 78.35 |  |  | 
Nc1cc(-c2ccc(N3CC[C@H](NC(=O)c4ccccc4F)C3)nc2)c2nccnc2c1 [Example 10, (S)-N-(1-(5-(7-aminoquinoxalin-5-yl)pyridin-2-yl)pyrrolidin-3-yl)-2-fluorobenzamide] | -0.09 | -0.6 | 2.27 | 5.5 | 1.55 | 0.99 | 59.9 |  |  | 32.59 | 0.5 | 2.26 | 44.7

Further lines, with some results ahead:

remaining activity at 10 µM [3, 8] [%] | remaining activity at 10 µM [3, 9] [%] | remaining activity at 0.1 µM [4] [%] | remaining activity at 0.1 µM [5] [%] | remaining activity at 10 µM [6, 10] [%] | remaining activity at 10 µM [6, 11] [%] | remaining activity at 0.1 µM [7] [%] | GI50 [1, 12] [nM] | SMILES | GI50 ([1]; BaF3, 72 h) [nM] | Cell Proliferation (% of control) [2] [%] | IC50 ([4]; read-out: Enzymatic inhibitory activity (IC50) nM V804M) [nM] | IC50 [5] [nM] | IC50 ([7]; read-out: Enzymatic inhibitory activity (IC50) nM G810R) [nM]
41.9 | 40.6 | 88.7 | 85.9 | 5.39 | 4.58 | 96.6 |  | CCNc1cc(Nc2cc(C)[nH]n2)c2nccnc2c1 [Example 32, N7-ethyl-N5-(5-methyl-1H-pyrazol-3-yl)quinoxaline-5,7-diamine] |  | 92.91 |  |  | 
2.65 | 0.69 | 2.27 | 5.5 | 1.25 | 1.01 | 59.9 | 1060 | CCNc1cc(-c2ccc(N3CC[C@H](NC(=O)c4ccccc4F)C3)nc2)c2nccnc2c1 [Example 12, (S)-N-(1-(5-(7-(ethylamino)quinoxalin-5-yl)pyridin-2-yl)pyrrolidin-3-yl)-2-fluorobenzamide] |  | 41.67 |  |  | 
61.7 | 61.2 | 105 | 109 | 14.8 | 15.4 | 98.5 |  | CCNc1cc(C#CCN2CCOCC2)c2nccnc2c1 [Example 31, N-ethyl-8-(3-morpholinoprop-1-yn-1-yl)quinoxalin-6-amine] |  | 51.88 |  |  | 
